6 compounds from patent US20140377340A1, “HLA-DR BINDING PEPTIDES AND THEIR USES” (priority 2007, published 2014) can be followed below.

For assay [1], the system named is 15 different HLA-DR molecules. Put plainly: HLA-DR binding assays, panel of 15 different HLA-DR molecules (breadth of binding). The note with it: number of the 15 HLA-DR molecules bound (binders: 1000 nM or better).
The next assay addresses T1, purified HLA DRB1*1501 (Homo sapiens, UniProt P01903+P01911).
T1 construct: purified from EBV transformed homozygous cell lines or single MHC allele transfected 721.221, C1R, or fibroblast lines; made in house
Kind of assay: HLA-DR radioligand binding inhibition assay, DRB1*1501. As for the experimental part: (§1) Instead, wells of an opaque white 96-well Optiplate (Packard) are coated with 3 μg (100 μl@ 30 μg/ml) of HLA-specific antibody (Ab) that “capture” complexes of radiolabeled MHC and unlabeled peptide transferred from the molecular binding assay plate in 100 μl of 0.05% NP40/PBS. After a 3-hour incubation period, the supernatant is decanted and scintillation fluid (Microscint 20) added. Captured complexes are then measured on a microplate scintillation and luminescence counter (TopCount NXTTM; Packard).
(§2) HLA-DR purification. Fifteen distinct HLA-DR molecules were used in quantitative assays to measure the binding of peptides to solubilized HLA-DR molecules. […] Briefly, columns of inactivated Sepharose CL4B and Protein A Sepharose were used as pre-columns. HLA-DR molecules were captured by passage of lysates over LB3.1 monoclonal antibody (anti-HLA-DRA) columns. Antibody columns were washed with 10 mM Tris-HCL, pH8.0 with 1% (v/v) NP-40, followed by PBS containing 0.4% (w/v) n-octylglucoside.
(§3) Briefly, 1-10 nM of radiolabeled peptide was co-incubated for 2 days at either room temperature or 37° C. with 1 μM to 1 nM purified HLA-DR molecules in the presence of a cocktail of protease inhibitors. Assays were performed at various pH conditions, ranging from pH 4 to pH 7. […] After incubation, the percentage of HLA-DR-bound radioactivity is determined by capturing HLA-DR/peptide complexes on Optiplates (Packard Instruments, Meriden, Conn.) coated with the LB3.1 antibody and determining bound counts per minute using the TopCount microscintillation counter (Packard Instruments).

The next assay concerns the target T2, purified HLA DRB1*0405 (Homo sapiens, UniProt P01903+P01911, A100R/A169T/D86S/F76Y/I96L/K127E/L162R/M171V/N62H/P40V/Q125Y/R42H/S133A/S149N/S66Y/V115G/V209L/W38E).
T2 construct: purified from EBV transformed homozygous cell lines or single MHC allele transfected 721.221, C1R, or fibroblast lines; made in house
Kind of assay: HLA-DR radioligand binding inhibition assay, DRB1*0405. The settings on record: IC50 nM purified HLA DRB1 *0405, purified HLA DRB1*0405. The protocol:
as §1, §2, §3

As to `CC[C@H](C)[C@H](NC(=O)[C@@H](NC(=O)[C@@H](NC(=O)[C@H](Cc1ccccc1)NC(=O)[C@H](CCCNC(=N)N)NC(=O)[C@H](CCC(N)=O)NC(=O)[C@@H]1CCCN1C(=O)[C@H](CC(=O)O)NC(=O)[C@H](CCCNC(=N)N)NC(=O)[C@H](C)NC(=O)[C@H](CCSC)NC(=O)[C@H](CCCNC(=N)N)NC(=O)[C@H](CO)NC(=O)[C@@H](N)Cc1ccccc1)C(C)C)C(C)C)C(=O)N[C@@H](CCC(N)=O)C(=O)O` [Peptide 9019.0004], the “Total XRN” value in assay [1] is reported as 10. Same read-out and setting: as for `CC(C)C[C@H](NC(=O)[C@H](CO)NC(=O)[C@H](C)NC(=O)[C@H](CC(N)=O)NC(=O)[C@@H](NC(=O)[C@@H]1CCCN1C(=O)[C@H](CC(C)C)NC(=O)[C@H](Cc1ccc(O)cc1)NC(=O)[C@@H](NC(=O)[C@@H](N)CC(C)C)[C@@H](C)O)[C@@H](C)O)C(=O)N[C@@H](CO)C(=O)N[C@@H](Cc1ccccc1)C(=O)N[C@@H](CC(C)C)C(=O)N[C@@H](CCC(N)=O)C(=O)N[C@@H](CC(=O)O)C(=O)O` [Peptide 9019.0031], the figure is 12. As for `CC[C@H](C)[C@H](NC(=O)[C@H](CCC(=O)O)NC(=O)[C@@H](NC(=O)[C@H](CC(C)C)NC(=O)[C@H](CO)NC(=O)[C@H](CCCNC(=N)N)NC(=O)[C@H](CC(C)C)NC(=O)[C@H](CCC(N)=O)NC(=O)[C@H](CC(C)C)NC(=O)[C@H](CCC(=O)O)NC(=O)[C@H](CCCNC(=N)N)NC(=O)[C@H](CC(C)C)NC(=O)CNC(=O)CNC(=O)[C@@H]1CCCN1)[C@@H](C)O)C(=O)O` [Peptide 9019.0038], the values for the IC50 on purified HLA DRB1*1501 and on purified HLA DRB1*0405 were 4410 nM and 110 nM, respectively. Turning to `CC[C@H](C)[C@H](NC(=O)[C@H](CCCNC(=N)N)NC(=O)CNC(=O)[C@H](CCCNC(=N)N)NC(=O)[C@@H](NC(=O)[C@@H](NC(=O)[C@H](CCC(N)=O)NC(=O)[C@H](CC(C)C)NC(=O)[C@H](CC(N)=O)NC(=O)[C@H](CCC(N)=O)NC(=O)[C@H](Cc1ccccc1)NC(=O)[C@@H](NC(=O)[C@H](CO)NC(=O)[C@@H](N)CC(C)C)C(C)C)C(C)C)[C@@H](C)CC)C(=O)N[C@@H](CC(C)C)C(=O)O` [Peptide 9019.0052], the “Total XRN” value in assay [1] was found to be 14. On the same count and under the same terms, next, `CC[C@H](C)[C@H](NC(=O)[C@H](CC(C)C)NC(=O)[C@H](C)NC(=O)[C@H](CC(C)C)NC(=O)CNC(=O)[C@H](CO)NC(=O)CNC(=O)[C@H](CC(C)C)NC(=O)[C@H](CCC(=O)O)NC(=O)[C@H](CCCNC(=N)N)NC(=O)[C@H](CC(C)C)NC(=O)[C@H](CO)NC(=O)[C@H](CCCNC(=N)N)NC(=O)[C@@H](N)CC(C)C)C(=O)N[C@@H](Cc1c[nH]cn1)C(=O)O` [Peptide 9019.0057]: 12. The same measure, in the same setting: as for `CC[C@H](C)[C@H](NC(=O)[C@@H](NC(=O)[C@H](CC(C)C)NC(=O)[C@H](CCCCN)NC(=O)[C@H](C)NC(=O)[C@@H](N)[C@@H](C)O)[C@@H](C)O)C(=O)N[C@@H](CCC(=O)O)C(=O)N[C@@H](CO)C(=O)N[C@H](C(=O)N1CCC[C@H]1C(=O)N[C@@H](Cc1ccccc1)C(=O)N[C@@H](CC(N)=O)C(=O)N[C@H](C(=O)N[C@@H](C)C(=O)N[C@@H](CCC(=O)O)C(=O)O)C(C)C)[C@@H](C)O` [Peptide 9019.0106], the figure is 9.
